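The compound was tested at five concentrations on cells cultured in 96-well plates, with a 48-hour exposure period. Abbreviation: GI50, concentration required for 50% inhibition of growth.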 Active and inactive are the calls of the source. No stated cut-off is given here; in the data, active = GI50 up to about 1.1 µM and inactive = higher.
Assays:
Assay in all cases: NCI tumour cell line growth inhibition, 48 h
U-251 = system: U-251
RXF 393 = system: RXF 393
SNB-19 = system: SNB-19
UO-31 = system: UO-31
COLO 205 = system: COLO 205
SN12C = system: SN12C
OVCAR-8 = system: OVCAR-8
HT-29 = system: HT-29
SK-OV-3 = system: SK-OV-3
HCC 2998 = system: HCC 2998
Malme-3M = system: Malme-3M
786-0 = system: 786-0
T47D = system: T47D
BT-549 = system: BT-549
IGROV-1 = system: IGROV-1
SW-620 = system: SW-620
OVCAR-5 = system: OVCAR-5
UACC-62 = system: UACC-62
MCF7 = system: MCF7

SMILES	GI50 (U-251)	GI50 (RXF 393)	GI50 (SNB-19)	GI50 (UO-31)	GI50 (COLO 205)	GI50 (SN12C)	GI50 (OVCAR-8)	GI50 (HT-29)	GI50 (SK-OV-3)	GI50 (HCC 2998)	GI50 (Malme-3M)	GI50 (786-0)	GI50 (T47D)	GI50 (BT-549)	GI50 (IGROV-1)	GI50 (SW-620)	GI50 (OVCAR-5)	GI50 (UACC-62)	GI50 (MCF7)
CCN1c2cc(Br)cc3[nH]c(=O)n(c23)CCC1C (stereo not given)	14.8 µM (inactive)	11.6 µM (inactive)	23.2 µM (inactive)	14 µM (inactive)	14.9 µM (inactive)	16.7 µM (inactive)	14.4 µM (inactive)	15.6 µM (inactive)	19.4 µM (inactive)	15.6 µM (inactive)	21.5 µM (inactive)	14.3 µM (inactive)	17.4 µM (inactive)	6.85 µM (inactive)	13.9 µM (inactive)	5.48 µM (inactive)	20.2 µM (inactive)	5.16 µM (inactive)	19.7 µM (inactive)
N#CCCN(C(=O)Nc1ccccc1)[C@H]1CCCC[C@@H]1N(C(=O)Nc1ccccc1)c1ccccc1	> 100 µM (inactive)	35.6 µM (inactive)	22.2 µM (inactive)	54.2 µM (inactive)	83 µM (inactive)	> 100 µM (inactive)	> 100 µM (inactive)	43 µM (inactive)	> 100 µM (inactive)	73.3 µM (inactive)	> 100 µM (inactive)	> 100 µM (inactive)	> 100 µM (inactive)	> 100 µM (inactive)	61 µM (inactive)	72.6 µM (inactive)	> 100 µM (inactive)	> 100 µM (inactive)	48.2 µM (inactive)
CC(C)CNP(=O)(NCC(C)C)Oc1ccc(CC(NC(=O)OCc2ccccc2)C(=O)OCc2ccccc2)cc1 (stereo not given)	16.5 µM (inactive)	18.5 µM (inactive)	25.2 µM (inactive)	20.3 µM (inactive)	19.2 µM (inactive)	18.8 µM (inactive)	17.3 µM (inactive)	17.2 µM (inactive)	15.2 µM (inactive)	16.8 µM (inactive)	19.1 µM (inactive)	13.6 µM (inactive)	13.4 µM (inactive)	20.7 µM (inactive)	35.4 µM (inactive)	20.4 µM (inactive)	> 100 µM (inactive)	18.5 µM (inactive)	11.1 µM (inactive)
CCN1CN(c2ccccc2)C2(CCN(CC(CC3OCCO3)c3ccc(F)cc3)CC2)C1=O (stereo not given)	14.9 µM (inactive)	16.2 µM (inactive)	20.6 µM (inactive)	26.2 µM (inactive)	0.703 µM (active)	14.3 µM (inactive)	8.81 µM (inactive)	1.34 µM (inactive)	39.8 µM (inactive)	9.93 µM (inactive)	19.7 µM (inactive)	8.36 µM (inactive)	5.13 µM (inactive)	21.6 µM (inactive)	6.75 µM (inactive)	6.35 µM (inactive)	6.5 µM (inactive)	18.1 µM (inactive)	2.26 µM (inactive)
CCCCCCc1cc(C=O)sc1-c1ccc(-c2sc(-c3ccc(-c4ccc(-c5cc(CCCCCC)c(-c6ccc(-c7sc(C=O)cc7CCCCCC)s6)s5)s4)s3)cc2CCCCCC)s1	> 100 µM (inactive)	> 100 µM (inactive)	> 100 µM (inactive)	> 100 µM (inactive)	> 100 µM (inactive)	> 100 µM (inactive)	> 100 µM (inactive)	> 100 µM (inactive)	> 100 µM (inactive)	> 100 µM (inactive)	> 100 µM (inactive)	> 100 µM (inactive)	> 100 µM (inactive)	> 100 µM (inactive)	> 100 µM (inactive)	> 100 µM (inactive)	> 100 µM (inactive)	> 100 µM (inactive)	> 100 µM (inactive)
C=C1C(=O)OC2CC(C)C3(O)CCC(=O)C3(C)CC12 (stereo not given)	38.1 µM (inactive)	21.8 µM (inactive)	18.7 µM (inactive)	28.2 µM (inactive)	40 µM (inactive)	19.1 µM (inactive)	24.6 µM (inactive)	20.2 µM (inactive)	46.8 µM (inactive)	23 µM (inactive)	19.5 µM (inactive)	21.3 µM (inactive)	40.4 µM (inactive)	44.2 µM (inactive)	23.8 µM (inactive)	42.1 µM (inactive)	23.6 µM (inactive)	44.3 µM (inactive)	29.2 µM (inactive)
C/C(=C\c1csc(C)n1)[C@@H]1C[C@@H]2O[C@@H]2CCC[C@H](C)[C@H](O)[C@@H](C)C(=O)C(C)(C)[C@@H](O)CC(=O)O1.C/C(=C\c1csc(C)n1)[C@@H]1C[C@@H]2O[C@]2(C)CCC[C@H](C)[C@H](O)[C@@H](C)C(=O)C(C)(C)[C@@H](O)CC(=O)O1	0.0055 µM (active)	0.00266 µM (active)	0.0191 µM (active)	0.0297 µM (active)	0.00299 µM (active)	0.00562 µM (active)	0.0048 µM (active)	0.00107 µM (active)	0.00971 µM (active)	0.00403 µM (active)	0.129 µM (active)	0.005 µM (active)	0.0366 µM (active)	0.0569 µM (active)	0.00241 µM (active)	0.00255 µM (active)	0.108 µM (active)	0.00767 µM (active)	0.00293 µM (active)
Cc1c(F)c(N)c2c(=O)cc(-c3ccc(N)c(F)c3)oc2c1F [AMINOFLAVONE]	4.2 µM (inactive)	17 µM (inactive)	21 µM (inactive)	5.33 µM (inactive)	32.5 µM (inactive)	17.1 µM (inactive)	19.6 µM (inactive)	33.7 µM (inactive)	17.6 µM (inactive)	19 µM (inactive)	33.5 µM (inactive)	14.2 µM (inactive)	0.313 µM (active)	17.5 µM (inactive)	0.0723 µM (active)	0.0305 µM (active)	0.15 µM (active)	4.73 µM (inactive)	0.0156 µM (active)
c1ccc(COc2nc3cc(C45CC6CC(CC(C6)C4)C5)ccc3[nH]2)cc1	8.87 µM (inactive)	11.3 µM (inactive)	24.8 µM (inactive)	6.22 µM (inactive)	4.01 µM (inactive)	18.5 µM (inactive)	18 µM (inactive)	3.53 µM (inactive)	29.8 µM (inactive)	9.68 µM (inactive)	9.16 µM (inactive)	14.9 µM (inactive)	2.83 µM (inactive)	19.8 µM (inactive)	13.6 µM (inactive)	21.4 µM (inactive)	41 µM (inactive)	7.13 µM (inactive)	4.7 µM (inactive)
CC(=O)OC(=C(C#N)C#N)c1nccnc1C(=O)O	> 100 µM (inactive)	> 100 µM (inactive)	> 100 µM (inactive)	> 100 µM (inactive)	> 100 µM (inactive)	> 100 µM (inactive)	> 100 µM (inactive)	> 100 µM (inactive)	> 100 µM (inactive)	> 100 µM (inactive)	> 100 µM (inactive)	> 100 µM (inactive)	> 100 µM (inactive)	> 100 µM (inactive)	> 100 µM (inactive)	> 100 µM (inactive)	> 100 µM (inactive)	> 100 µM (inactive)	> 100 µM (inactive)
COC(=O)N1N=C(c2ccccc2)C1c1ccccc1 (stereo not given)	42.7 µM (inactive)	31.7 µM (inactive)	29.5 µM (inactive)	13.7 µM (inactive)	27 µM (inactive)	42.4 µM (inactive)	27.5 µM (inactive)	32.1 µM (inactive)	69.3 µM (inactive)	32.1 µM (inactive)	40.7 µM (inactive)	35.2 µM (inactive)	25.4 µM (inactive)	30.5 µM (inactive)	–	48.6 µM (inactive)	78.5 µM (inactive)	22 µM (inactive)	28.9 µM (inactive)
O=C1OC2c3ccccc3C(=O)C2(c2ccccc2)N1c1ccccc1 (stereo not given)	> 200 µM (inactive)	> 200 µM (inactive)	> 200 µM (inactive)	72.6 µM (inactive)	86.1 µM (inactive)	> 200 µM (inactive)	> 200 µM (inactive)	> 200 µM (inactive)	> 200 µM (inactive)	> 200 µM (inactive)	> 200 µM (inactive)	> 200 µM (inactive)	174 µM (inactive)	> 200 µM (inactive)	> 200 µM (inactive)	> 200 µM (inactive)	> 200 µM (inactive)	> 200 µM (inactive)	> 200 µM (inactive)
CC(=O)NC1C(OCc2ccccc2)OC(CO)C(O)C1OCC(=O)NC(C(=O)NC(CCC(=O)NCCCCCC(=O)Nc1ccc2c(c1)CN1C(=O)c3ccccc3C1=N2)C(N)=O)C(C)C (stereo not given)	18.8 µM (inactive)	21.8 µM (inactive)	20.9 µM (inactive)	47.4 µM (inactive)	47 µM (inactive)	> 100 µM (inactive)	26.4 µM (inactive)	42.8 µM (inactive)	18.8 µM (inactive)	35.6 µM (inactive)	23.8 µM (inactive)	16.4 µM (inactive)	22.3 µM (inactive)	21.6 µM (inactive)	20.3 µM (inactive)	50.6 µM (inactive)	> 100 µM (inactive)	20.9 µM (inactive)	16.9 µM (inactive)
O=C(/N=C1/OC(CN2CCOCC2)CN1C(=O)Nc1ccccc1)Nc1ccccc1 (stereo not given)	> 100 µM (inactive)	> 100 µM (inactive)	> 100 µM (inactive)	> 100 µM (inactive)	> 100 µM (inactive)	> 100 µM (inactive)	> 100 µM (inactive)	> 100 µM (inactive)	> 100 µM (inactive)	> 100 µM (inactive)	> 100 µM (inactive)	> 100 µM (inactive)	21.4 µM (inactive)	> 100 µM (inactive)	> 100 µM (inactive)	> 100 µM (inactive)	> 100 µM (inactive)	> 100 µM (inactive)	> 100 µM (inactive)

Reference: ChEMBL document CHEMBL1201862, “PubChem BioAssay data set” (2004)
